We go through one compound from patent US20120203161A1, “DEUTERATED WATER AND RIBOFLAVIN SOLUTION FOR EXTENDING SINGLET OXYGEN LIFETIMES IN TREATMENT OF OCULAR TISSUE AND METHOD OF USE” (SEROS MEDICAL, LLC, priority 2009, published 2012).

The test system of this data set is endothelial cell.

As for `[2H]O[2H]` [deuterated water, deuterium oxide], the endothelial cell apoptosis result is “does not induce endothelial cell apoptosis”.
